From PubChem BioAssay (NCI)
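Test compounds were applied to cells in 96-well plates for 48 hours at 5 doses. At the GI50, growth is halved. At the TGI there is no net growth.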

Key:
Assay in all cases: inhibition of tumour cell growth, NCI panel, 48 h
NCI-H522 lung = test system: NCI-H522 lung
UACC-257 melanoma = test system: UACC-257 melanoma
A549 NSCLC = test system: A549 NSCLC
SF-295 CNS = test system: SF-295 CNS
SK-MEL-28 melanoma = test system: SK-MEL-28 melanoma
MDA-MB-435 = test system: MDA-MB-435
OVCAR-4 ovarian = test system: OVCAR-4 ovarian
UACC-62 melanoma = test system: UACC-62 melanoma
NCI-H460 lung = test system: NCI-H460 lung
786-0 renal = test system: 786-0 renal

## NC(=O)c1c(NC(=O)c2ccccc2)sc2c1CCC(=O)C2
NCI-H522 lung
  GI50: 0.346 µM
  TGI: 2.14 µM
UACC-257 melanoma
  GI50: 2.21 µM
  TGI: 6.13 µM
A549 NSCLC
  GI50: 3.58 µM
  TGI: > 100 µM
SF-295 CNS
  GI50: 2.69 µM
  TGI: 7.94 µM
SK-MEL-28 melanoma
  GI50: 2.88 µM
  TGI: 19.2 µM
MDA-MB-435
  GI50: 3.09 µM
  TGI: 10.5 µM
OVCAR-4 ovarian
  GI50: 0.732 µM
  TGI: 2.01 µM
UACC-62 melanoma
  GI50: 0.723 µM
  TGI: 2.51 µM
NCI-H460 lung
  GI50: 3.04 µM
  TGI: > 100 µM

## O=[N+]([O-])C(=C(Nc1ccccc1)Nc1ccccc1)C(Cl)=C(Cl)Cl
NCI-H522 lung
  TGI: 39.6 µM
UACC-257 melanoma
  TGI: 30.7 µM
A549 NSCLC
  TGI: 35.2 µM
SF-295 CNS
  TGI: 36.4 µM
SK-MEL-28 melanoma
  TGI: 35.7 µM
MDA-MB-435
  TGI: 28.7 µM
OVCAR-4 ovarian
  TGI: 24.8 µM
786-0 renal
  TGI: 29.4 µM
UACC-62 melanoma
  TGI: 32.2 µM
NCI-H460 lung
  TGI: 33 µM

## CC1(C)[C@@H]2CC[C@@]1(C)CN(CCC[N+](C)(C)C)C2
NCI-H522 lung
  TGI: > 100 µM
UACC-257 melanoma
  TGI: > 100 µM
A549 NSCLC
  TGI: > 100 µM
SF-295 CNS
  TGI: > 100 µM
SK-MEL-28 melanoma
  TGI: > 100 µM
MDA-MB-435
  TGI: > 100 µM
OVCAR-4 ovarian
  TGI: > 100 µM
786-0 renal
  TGI: > 100 µM
UACC-62 melanoma
  TGI: > 100 µM
NCI-H460 lung
  TGI: > 100 µM

## O=C(O)[C@H]1CCCN1CP(=O)(O)CN1CCC[C@@H]1C(=O)O
NCI-H522 lung
  TGI: > 100 µM
UACC-257 melanoma
  TGI: > 100 µM
A549 NSCLC
  TGI: > 100 µM
SF-295 CNS
  TGI: > 100 µM
SK-MEL-28 melanoma
  TGI: > 100 µM
MDA-MB-435
  TGI: > 100 µM
OVCAR-4 ovarian
  TGI: > 100 µM
786-0 renal
  TGI: > 100 µM
UACC-62 melanoma
  TGI: > 100 µM
NCI-H460 lung
  TGI: > 100 µM

## CCN1CN(c2ccccc2)C2(CCN(CC3COc4ccccc4O3)CC2)C1=O (stereo not drawn)
NCI-H522 lung
  TGI: 40.8 µM
UACC-257 melanoma
  TGI: > 100 µM
A549 NSCLC
  TGI: > 100 µM
SF-295 CNS
  TGI: > 100 µM
SK-MEL-28 melanoma
  TGI: 87.3 µM
MDA-MB-435
  TGI: 67.2 µM
786-0 renal
  TGI: > 100 µM
UACC-62 melanoma
  TGI: 73.4 µM
NCI-H460 lung
  TGI: 45.4 µM

## O=C1c2ccccc2C(=O)N1n1c(Cc2ccc([N+](=O)[O-])cc2)n[nH]c1=O
NCI-H522 lung
  TGI: > 100 µM
UACC-257 melanoma
  TGI: > 100 µM
A549 NSCLC
  TGI: > 100 µM
SF-295 CNS
  TGI: > 100 µM
SK-MEL-28 melanoma
  TGI: > 100 µM
MDA-MB-435
  TGI: > 100 µM
786-0 renal
  TGI: > 100 µM
UACC-62 melanoma
  TGI: 89.1 µM
NCI-H460 lung
  TGI: > 100 µM

## C=CCn1c(=O)c(C(=O)Nc2nc(C34CC5CC(CC(C5)C3)C4)cs2)c(O)c2ccccc21
NCI-H522 lung
  TGI: > 100 µM
UACC-257 melanoma
  TGI: 22.4 µM
A549 NSCLC
  TGI: 45.1 µM
SF-295 CNS
  TGI: 40.7 µM
SK-MEL-28 melanoma
  TGI: > 100 µM
MDA-MB-435
  TGI: > 100 µM
OVCAR-4 ovarian
  TGI: > 100 µM
786-0 renal
  TGI: > 100 µM
NCI-H460 lung
  TGI: > 100 µM

## NCCCN1c2ccccc2Sc2ccc(Cl)cc21
NCI-H522 lung
  TGI: > 5.15 µM
UACC-257 melanoma
  TGI: > 10 µM
A549 NSCLC
  TGI: > 10 µM
SF-295 CNS
  TGI: > 10 µM
SK-MEL-28 melanoma
  TGI: > 10 µM
MDA-MB-435
  TGI: 4.01 µM
OVCAR-4 ovarian
  TGI: > 10 µM
786-0 renal
  TGI: > 10 µM
UACC-62 melanoma
  TGI: > 10 µM
NCI-H460 lung
  TGI: > 7.31 µM

## Cc1cccc(C)c1NC(=O)C(Cc1c[nH]c2ccccc12)NC(=O)OCc1ccccc1 (stereo not drawn)
NCI-H522 lung
  TGI: 72.7 µM
UACC-257 melanoma
  TGI: 34 µM
A549 NSCLC
  TGI: 46.6 µM
SF-295 CNS
  TGI: 38.9 µM
SK-MEL-28 melanoma
  TGI: 57.1 µM
MDA-MB-435
  TGI: 48.5 µM
OVCAR-4 ovarian
  TGI: 37.1 µM
786-0 renal
  TGI: 53.6 µM
UACC-62 melanoma
  TGI: 41.3 µM
NCI-H460 lung
  TGI: 43.6 µM

## CCOC(=O)c1c(-c2ccc(O)c(OC)c2)c(C#N)c(=S)n(C2OC(CO)C(O)C(O)C2O)c1-c1ccccc1 (stereo not drawn)
UACC-257 melanoma
  TGI: > 100 µM
A549 NSCLC
  TGI: > 100 µM
SF-295 CNS
  TGI: > 100 µM
SK-MEL-28 melanoma
  TGI: > 100 µM
MDA-MB-435
  TGI: > 100 µM
OVCAR-4 ovarian
  TGI: > 100 µM
786-0 renal
  TGI: > 100 µM
UACC-62 melanoma
  TGI: > 100 µM
NCI-H460 lung
  TGI: > 100 µM

## Cc1nn(-c2ccccc2)c2c1C(c1cc3ccccc3nc1Cl)NC(=O)N2 (stereo not drawn)
NCI-H522 lung
  TGI: 35.4 µM
UACC-257 melanoma
  TGI: 85.9 µM
A549 NSCLC
  TGI: > 100 µM
SF-295 CNS
  TGI: 55.8 µM
MDA-MB-435
  TGI: 54.7 µM
OVCAR-4 ovarian
  TGI: > 100 µM
786-0 renal
  TGI: 35.2 µM
UACC-62 melanoma
  TGI: 42.5 µM
NCI-H460 lung
  TGI: > 100 µM

## COC1=CC(=O)c2c(c(-c3nc(C)cs3)cn2C)C1=O
NCI-H522 lung
  TGI: 7.26 µM
UACC-257 melanoma
  TGI: 4.44 µM
A549 NSCLC
  TGI: 12 µM
SF-295 CNS
  TGI: 9.72 µM
SK-MEL-28 melanoma
  TGI: 16.1 µM
MDA-MB-435
  TGI: 1.4 µM
OVCAR-4 ovarian
  TGI: 68.7 µM
786-0 renal
  TGI: > 100 µM
UACC-62 melanoma
  TGI: 7.74 µM
NCI-H460 lung
  TGI: 3.82 µM

## O=c1[nH][nH]c(=O)n1CCCCCCn1c(=O)[nH][nH]c1=O
NCI-H522 lung
  TGI: > 100 µM
UACC-257 melanoma
  TGI: > 100 µM
A549 NSCLC
  TGI: > 100 µM
SK-MEL-28 melanoma
  TGI: > 100 µM
MDA-MB-435
  TGI: > 100 µM
OVCAR-4 ovarian
  TGI: > 100 µM
786-0 renal
  TGI: > 100 µM
UACC-62 melanoma
  TGI: > 100 µM
NCI-H460 lung
  TGI: > 100 µM

## Cc1ccc(S(=O)(=O)n2c3c(c4ccccc42)CCN2C[C@H]([C@H](C)Br)CC[C@@H]32)cc1
NCI-H522 lung
  TGI: > 100 µM
UACC-257 melanoma
  TGI: > 100 µM
A549 NSCLC
  TGI: > 100 µM
SF-295 CNS
  TGI: > 100 µM
SK-MEL-28 melanoma
  TGI: > 100 µM
MDA-MB-435
  TGI: > 100 µM
OVCAR-4 ovarian
  TGI: > 100 µM
786-0 renal
  TGI: > 100 µM
UACC-62 melanoma
  TGI: > 100 µM
NCI-H460 lung
  TGI: > 100 µM

## OC[C@H]1O[C@@H]2O[C@@](COCc3ccccc3)([C@H](OCc3ccccc3)[C@H]2O)[C@@H]1OCc1ccccc1
NCI-H522 lung
  TGI: 31.6 µM
UACC-257 melanoma
  TGI: 32.2 µM
A549 NSCLC
  TGI: 29.3 µM
SF-295 CNS
  TGI: 28.8 µM
MDA-MB-435
  TGI: 31.8 µM
OVCAR-4 ovarian
  TGI: 10.8 µM
786-0 renal
  TGI: 30.7 µM
UACC-62 melanoma
  TGI: 27.7 µM
NCI-H460 lung
  TGI: 34.2 µM

## O=[N+]([O-])C(=C(Nc1cccc2cccnc12)Nc1cccc2cccnc12)C(Cl)=C(Cl)Cl
NCI-H522 lung
  TGI: 56.3 µM
A549 NSCLC
  TGI: > 100 µM
SF-295 CNS
  TGI: > 100 µM
SK-MEL-28 melanoma
  TGI: > 100 µM
MDA-MB-435
  TGI: > 100 µM
OVCAR-4 ovarian
  TGI: > 96.1 µM
786-0 renal
  TGI: > 100 µM
UACC-62 melanoma
  TGI: > 100 µM
NCI-H460 lung
  TGI: > 100 µM

## O=S(=O)(O)C(CO)c1ccccc1 (stereo not drawn) (tested in a mixture with another compound)
NCI-H522 lung
  TGI: > 100 µM
UACC-257 melanoma
  TGI: > 100 µM
A549 NSCLC
  TGI: > 100 µM
SF-295 CNS
  TGI: > 100 µM
SK-MEL-28 melanoma
  TGI: > 100 µM
MDA-MB-435
  TGI: > 100 µM
OVCAR-4 ovarian
  TGI: > 100 µM
786-0 renal
  TGI: > 100 µM
UACC-62 melanoma
  TGI: > 100 µM
NCI-H460 lung
  TGI: > 100 µM

## C=CCc1cc(-c2nc(=S)[nH][nH]2)ccc1N=NNc1ccc(C(=O)O)cc1
NCI-H522 lung
  TGI: > 100 µM
UACC-257 melanoma
  TGI: > 100 µM
A549 NSCLC
  TGI: > 100 µM
SF-295 CNS
  TGI: > 100 µM
SK-MEL-28 melanoma
  TGI: > 100 µM
MDA-MB-435
  TGI: > 100 µM
OVCAR-4 ovarian
  TGI: > 100 µM
786-0 renal
  TGI: > 100 µM

## COc1ccc(C(=O)/C=C/c2ccc(OCCCOc3ccc(/C=C/C(=O)c4ccc(OC)cc4)cc3)cc2)cc1
UACC-257 melanoma
  TGI: > 100 µM
A549 NSCLC
  TGI: > 100 µM
SF-295 CNS
  TGI: > 100 µM
SK-MEL-28 melanoma
  TGI: > 100 µM
MDA-MB-435
  TGI: > 100 µM
OVCAR-4 ovarian
  TGI: > 100 µM
786-0 renal
  TGI: > 100 µM
UACC-62 melanoma
  TGI: > 100 µM
NCI-H460 lung
  TGI: > 100 µM

## COc1cc(O)c2c(c1)C(=O)c1cc3c(c(O)c1C2=O)C(OC1OC(C)C(OC)C(O)C1OC)C(OC)C(C)(O)C3=O (stereo not drawn)
NCI-H522 lung
  TGI: 3.62 µM
UACC-257 melanoma
  TGI: 16.2 µM
A549 NSCLC
  TGI: 16.1 µM
SF-295 CNS
  TGI: 18.3 µM
SK-MEL-28 melanoma
  TGI: 22.1 µM
MDA-MB-435
  TGI: 16.1 µM
OVCAR-4 ovarian
  TGI: 15.5 µM
786-0 renal
  TGI: 45.5 µM
NCI-H460 lung
  TGI: 10.8 µM

## CSC1=N/C(=C\c2ccc(C)cc2)C(=O)N1CN1CCCCC1
NCI-H522 lung
  TGI: > 100 µM
A549 NSCLC
  TGI: > 100 µM
SF-295 CNS
  TGI: > 100 µM
SK-MEL-28 melanoma
  TGI: > 100 µM
MDA-MB-435
  TGI: > 100 µM
OVCAR-4 ovarian
  TGI: > 100 µM
786-0 renal
  TGI: > 100 µM
UACC-62 melanoma
  TGI: > 100 µM

## O=C1c2cc(-c3ccccc3)cnc2S(=O)(=O)N1c1ccc(Br)cc1
NCI-H522 lung
  TGI: 54.6 µM
UACC-257 melanoma
  TGI: > 100 µM
A549 NSCLC
  TGI: 49.3 µM
SF-295 CNS
  TGI: 38.5 µM
SK-MEL-28 melanoma
  TGI: > 100 µM
MDA-MB-435
  TGI: > 100 µM
786-0 renal
  TGI: > 100 µM
UACC-62 melanoma
  TGI: > 100 µM
NCI-H460 lung
  TGI: 75 µM
